Measured values reported in patent publication US12569509B2, “Method and composition for preventing and treating viral infections” (priority 2017, dated 2026).
“And” between values parts separate entries of the source, which are not always exact repeats. Equal entries are not always repeated.

Experiments:
RecQ helicase = target: T1, RecQ helicase (Escherichia coli, UniProt P15043); assay: Cell-free fluorescence molecular beacon helicase assay; assay type: biochemical, E. coli; parameters: Average rate of reaction / Rate (Triplicate): unit: RFU/min; details: for Average rate of reaction: mean of triplicate; for Rate (Triplicate): rate of reaction=(F0-F35)/35; for Fluorescence at 35 minutes, Run 2 / Fluorescence at time 0, Run 2: duplicate, listed as M; for Change in helicase activity compared to the DMSO control: any of the tested concentrations (0.06-200 μg/mL)
T1 construct: a full-length E. coli helicase, RecQ, was used

human PBMC = assay: LPS stimulated cytokine secretion in human PBMC pretreated with compounds (Phase 2); assay type: cell-based; parameters: TNF-α concentration in supernatant / IL-1β concentration in supernatant / IL-6 concentration in supernatant / IL-2 concentration in supernatant / IFN-g concentration in supernatant: unit of the concentration uncertain; details: for IL-1β Mean Fold-Change (Relative to LPS alone) / IL-6 Mean Fold-Change (Relative to LPS alone) / TNF-α Mean Fold-Change (Relative to LPS alone): 1 ng/mL LPS stimulation for 8 hours, means from 3 donors; for IL-2 concentration in supernatant / TNF-α concentration in supernatant / IL-1β concentration in supernatant / IFN-g concentration in supernatant / IL-6 concentration in supernatant: 8-hour 1 ng/mL LPS stimulation; for IL-2 concentration in supernatant: LLOQ = 1.698 pg/mL; for TNF-α concentration in supernatant: LLOQ = 2.018 pg/mL; for IL-1β concentration in supernatant: LLOQ = 2.299 pg/mL; for IFN-g concentration in supernatant: LLOQ = 2.792 pg/mL; for IL-6 concentration in supernatant: LLOQ = 0.831; for Effect on LPS stimulated cytokine secretion: any conditions tested
Text: Results are represented as fold-change relative to LPS treatment alone for each cytokine calculated by means from 3 separate donors.
RPMI medium alone, RPMI supplemented with 0.2% DMSO (to mimic treatment conditions) or LPS stimulation alone were used as controls.
Except for the two negative control conditions, all 3 donors responded to all experimental conditions tested with the secretion of TNF-α, IL-1β, and IL-6 albeit with a high degree of variability.

[1] = TA 0.2 μg/mL (plate column 5, wells A-C)
[2] = TA 2 μg/mL (plate column 7, wells A-C)
[3] = TA 6 μg/mL (plate column 8, wells A-C)
[4] = TA 200 μg/mL (plate column 11, wells A-C)
[5] = TA 200 + Buffer (plate column 12, wells A-C)

T1 sequence (P15043 whole entry): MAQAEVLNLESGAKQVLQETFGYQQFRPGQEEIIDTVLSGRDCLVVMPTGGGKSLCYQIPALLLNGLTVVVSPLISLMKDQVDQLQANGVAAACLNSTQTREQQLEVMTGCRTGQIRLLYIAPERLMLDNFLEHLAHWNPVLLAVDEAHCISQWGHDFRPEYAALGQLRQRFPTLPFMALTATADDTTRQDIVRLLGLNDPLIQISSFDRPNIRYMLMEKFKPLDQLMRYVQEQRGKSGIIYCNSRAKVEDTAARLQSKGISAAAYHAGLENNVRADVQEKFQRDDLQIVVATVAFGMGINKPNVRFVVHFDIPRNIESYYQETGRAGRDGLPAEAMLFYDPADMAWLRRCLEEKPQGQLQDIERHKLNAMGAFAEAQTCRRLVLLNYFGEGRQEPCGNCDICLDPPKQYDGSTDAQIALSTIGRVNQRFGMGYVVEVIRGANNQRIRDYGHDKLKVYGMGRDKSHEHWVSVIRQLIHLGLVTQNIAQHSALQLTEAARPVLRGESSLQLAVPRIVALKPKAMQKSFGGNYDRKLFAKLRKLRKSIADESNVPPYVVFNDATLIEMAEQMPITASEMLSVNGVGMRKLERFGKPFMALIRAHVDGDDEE

O=c1c(O)c(-c2cc(O)c(O)c(O)c2)oc2cc(O)cc(O)c12 [Myricetin] was tested, and the “Average rate of reaction” value (RecQ helicase; 0.06 μg/mL) was 119.381, the “Rate (Triplicate)” value (RecQ helicase; 0.06 μg/mL) was 156.0857 and 120.9143 and 81.14 and the “Fluorescence at 35 minutes, Run 2” value (RecQ helicase; 0.2 μg/mL) was 3820 RFU and 2972 RFU. For the same molecule, the “Fluorescence at time 0, Run 2” value (RecQ helicase; 0.2 μg/mL) was 5788 RFU and 4210 RFU, the “Average rate of reaction” value (RecQ helicase; 0.2 μg/mL) was 54.7 and the “Fluorescence at 35 minutes, Run 2” value (RecQ helicase; 0.6 μg/mL) was 4426 RFU and 3662 RFU. The “Fluorescence at time 0, Run 2” value (RecQ helicase; 0.6 μg/mL) was 9244 RFU and 9661 RFU, the “Average rate of reaction” value (RecQ helicase; 0.6 μg/mL) was 39.68 and the “Fluorescence at 35 minutes, Run 2” value (RecQ helicase; 2 μg/mL) was 4289 RFU and 4448 RFU. The “Fluorescence at time 0, Run 2” value (RecQ helicase; 2 μg/mL) was 8530 RFU and 9826 RFU, the “Average rate of reaction” value (RecQ helicase; 2.0 μg/mL) was 98.63 and the “Fluorescence at 35 minutes, Run 2” value (RecQ helicase; 6 μg/mL) was 3604 RFU and 4445 RFU. The “Average rate of reaction” value (RecQ helicase; 6.0 μg/mL) was 107.0439, the “Fluorescence at 35 minutes, Run 2” value (RecQ helicase; 20 μg/mL) was 5025 RFU and 5336 RFU and the “Fluorescence at time 0, Run 2” value (RecQ helicase; 20 μg/mL) was 5022 RFU and 5466 RFU. The “Average rate of reaction” value (RecQ helicase; 20.0 μg/mL) was 42.49, the “Fluorescence at 35 minutes, Run 2” value (RecQ helicase; 60 μg/mL) was 4100 RFU and 3834 RFU and the “Average rate of reaction” value (RecQ helicase; 60.0 μg/mL) was 85. The “Fluorescence at 35 minutes, Run 2” value (RecQ helicase; 200 μg/mL) was 2562 RFU and 2378 RFU, the “Fluorescence at time 0, Run 2” value (RecQ helicase; 200 μg/mL) was 4555 RFU and 3893 RFU and the “Average rate of reaction” value (RecQ helicase; 200.0 μg/mL) was 69.46. The “Rate (Triplicate)” value (RecQ helicase; 200.0 μg/mL) was 81.98 and 52.34 and 74.0595, the “Fluorescence at 0:00:00, Run 1” value (RecQ helicase; TA 0.06 μg/mL (plate column 4, wells A-C)) was 14946 RFU and 8957 RFU and 8828 RFU and the “Fluorescence at 0:00:00, Run 1” value (RecQ helicase; [1]) was 10047 RFU and 9670 RFU and 6773 RFU. The “Fluorescence at 0:35:00, Run 1” value (RecQ helicase; [1]) was 7144 RFU and 8199 RFU and 5403 RFU, the “Fluorescence at 0:35:00, Run 1” value (RecQ helicase; TA 0.6 μg/mL (plate column 6, wells A-C)) was 7961 RFU and 4234 RFU and 5238 RFU and the “Fluorescence at 0:00:00, Run 1” value (RecQ helicase; [2]) was 12406 RFU and 10235 RFU and 7932 RFU. For the same molecule, the “Fluorescence at 0:35:00, Run 1” value (RecQ helicase; [2]) was 8386 RFU and 5162 RFU and 6669 RFU, the “Fluorescence at 0:00:00, Run 1” value (RecQ helicase; [3]) was 13174 RFU and 13286 RFU and 6908 RFU and the “Fluorescence at 0:35:00, Run 1” value (RecQ helicase; [3]) was 9109 RFU and 7022 RFU and 6649 RFU. The “Fluorescence at 0:35:00, Run 1” value (RecQ helicase; TA 20 μg/mL (plate column 9, wells A-C)) was 7412 RFU and 10338 RFU and 6947 RFU, the “Fluorescence at 0:35:00, Run 1” value (RecQ helicase; TA 60 μg/mL (plate column 10, wells A-C)) was 8883 RFU and 7317 RFU and 6795 RFU and the “Fluorescence at 0:00:00, Run 1” value (RecQ helicase; [4]) was 6608 RFU and 4850 RFU and 6196 RFU. The “Fluorescence at 0:35:00, Run 1” value (RecQ helicase; [4]) was 5004 RFU and 3826 RFU and 4747 RFU, the “Fluorescence at 0:00:00, Run 1” value (RecQ helicase; [5]) was 5165 RFU and 8965 RFU and 8207 RFU and the “Fluorescence at 0:35:00, Run 1” value (RecQ helicase; [5]) was 3022 RFU and 4495 RFU and 5122 RFU. For the same molecule, the “Change in helicase activity compared to the DMSO control” value (RecQ helicase) was “no observed consistent change”, the “Change in helicase activity compared to the DMSO control” value (RecQ helicase; listed as myricetin) was “no effect” and the “IL-1β Mean Fold-Change (Relative to LPS alone)” value (human PBMC; 10 mM (so in the source)) was 1.10. For the same molecule, the “IL-6 Mean Fold-Change (Relative to LPS alone)” value (human PBMC; 10 mM (so in the source)) was 0.97, the “TNF-α Mean Fold-Change (Relative to LPS alone)” value (human PBMC; 10 mM (so in the source)) was 0.90 and the “IL-1β Mean Fold-Change (Relative to LPS alone)” value (human PBMC; 100 mM (so in the source)) was 1.09. For the same molecule, the “IL-6 Mean Fold-Change (Relative to LPS alone)” value (human PBMC; 100 mM (so in the source)) was 0.88, the “TNF-α Mean Fold-Change (Relative to LPS alone)” value (human PBMC; 100 mM (so in the source)) was 0.93 and the “IL-1β Mean Fold-Change (Relative to LPS alone)” value (human PBMC; 200 mM (so in the source)) was 0.98. For the same molecule, the “IL-6 Mean Fold-Change (Relative to LPS alone)” value (human PBMC; 200 mM (so in the source)) was 0.75, the “TNF-α Mean Fold-Change (Relative to LPS alone)” value (human PBMC; 200 mM (so in the source)) was 0.86 and the “IL-2 concentration in supernatant” value (human PBMC; Donor 1, 10 (unit uncertain)) was “<LLOQ”. The “TNF-α concentration in supernatant” value (human PBMC; Donor 1, 10 (unit uncertain)) was 1496.9 pg/mL, the “IL-1β concentration in supernatant” value (human PBMC; Donor 1, 10 (unit uncertain)) was 3079.47 pg/mL and the “IFN-g concentration in supernatant” value (human PBMC; Donor 1, 10 (unit uncertain)) was “<LLOQ”. For the same molecule, the “IL-6 concentration in supernatant” value (human PBMC; Donor 1, 10 (unit uncertain)) was 884.11 pg/mL, the “IL-2 concentration in supernatant” value (human PBMC; Donor 1, 100 (unit uncertain)) was “<LLOQ” and the “TNF-α concentration in supernatant” value (human PBMC; Donor 1, 100 (unit uncertain)) was 1251.59 pg/mL. For the same molecule, the “IL-1β concentration in supernatant” value (human PBMC; Donor 1, 100 (unit uncertain)) was 2858.12 pg/mL, the “IFN-g concentration in supernatant” value (human PBMC; Donor 1, 100 (unit uncertain)) was “<LLOQ” and the “IL-6 concentration in supernatant” value (human PBMC; Donor 1, 100 (unit uncertain)) was 767.01 pg/mL. For the same molecule, the “IL-2 concentration in supernatant” value (human PBMC; Donor 1, 200 (unit uncertain)) was “<LLOQ”, the “TNF-α concentration in supernatant” value (human PBMC; Donor 1, 200 (unit uncertain)) was 1811.82 pg/mL and the “IL-1β concentration in supernatant” value (human PBMC; Donor 1, 200 (unit uncertain)) was 2923.92 pg/mL. The “IFN-g concentration in supernatant” value (human PBMC; Donor 1, 200 (unit uncertain)) was “<LLOQ”, the “IL-6 concentration in supernatant” value (human PBMC; Donor 1, 200 (unit uncertain)) was 781.22 pg/mL and the “IL-2 concentration in supernatant” value (human PBMC; Donor 2, 10 (unit uncertain)) was “<LLOQ”. For the same molecule, the “TNF-α concentration in supernatant” value (human PBMC; Donor 2, 10 (unit uncertain)) was 1006.28 pg/mL, the “IL-1β concentration in supernatant” value (human PBMC; Donor 2, 10 (unit uncertain)) was 2517.48 pg/mL and the “IFN-g concentration in supernatant” value (human PBMC; Donor 2, 10 (unit uncertain)) was “<LLOQ”. The “IL-6 concentration in supernatant” value (human PBMC; Donor 2, 10 (unit uncertain)) was 685.49 pg/mL, the “IL-2 concentration in supernatant” value (human PBMC; Donor 2, 100 (unit uncertain)) was “<LLOQ” and the “TNF-α concentration in supernatant” value (human PBMC; Donor 2, 100 (unit uncertain)) was 1597.26 pg/mL. For the same molecule, the “IL-1β concentration in supernatant” value (human PBMC; Donor 2, 100 (unit uncertain)) was 3046.49 pg/mL, the “IFN-g concentration in supernatant” value (human PBMC; Donor 2, 100 (unit uncertain)) was “<LLOQ” and the “IL-6 concentration in supernatant” value (human PBMC; Donor 2, 100 (unit uncertain)) was 833.84 pg/mL. For the same molecule, the “IL-2 concentration in supernatant” value (human PBMC; Donor 2, 200 (unit uncertain)) was “<LLOQ”, the “TNF-α concentration in supernatant” value (human PBMC; Donor 2, 200 (unit uncertain)) was 1021.2 pg/mL and the “IL-1β concentration in supernatant” value (human PBMC; Donor 2, 200 (unit uncertain)) was 2501.45 pg/mL. For the same molecule, the “IFN-g concentration in supernatant” value (human PBMC; Donor 2, 200 (unit uncertain)) was “<LLOQ”, the “IL-6 concentration in supernatant” value (human PBMC; Donor 2, 200 (unit uncertain)) was 649.98 pg/mL and the “IL-2 concentration in supernatant” value (human PBMC; Donor 3, 10 (unit uncertain)) was “<LLOQ”. For the same molecule, the “TNF-α concentration in supernatant” value (human PBMC; Donor 3, 10 (unit uncertain)) was 4121.89 pg/mL, the “IL-1β concentration in supernatant” value (human PBMC; Donor 3, 10 (unit uncertain)) was 3880.95 pg/mL and the “IFN-g concentration in supernatant” value (human PBMC; Donor 3, 10 (unit uncertain)) was “<LLOQ”. For the same molecule, the “IL-6 concentration in supernatant” value (human PBMC; Donor 3, 10 (unit uncertain)) was 685.49 pg/mL, the “IL-2 concentration in supernatant” value (human PBMC; Donor 3, 100 (unit uncertain)) was “<LLOQ” and the “TNF-α concentration in supernatant” value (human PBMC; Donor 3, 100 (unit uncertain)) was 3225.93 pg/mL. The “IL-1β concentration in supernatant” value (human PBMC; Donor 3, 100 (unit uncertain)) was 3293.89 pg/mL, the “IFN-g concentration in supernatant” value (human PBMC; Donor 3, 100 (unit uncertain)) was “<LLOQ” and the “IL-6 concentration in supernatant” value (human PBMC; Donor 3, 100 (unit uncertain)) was 833.84 pg/mL. The “IL-2 concentration in supernatant” value (human PBMC; Donor 3, 200 (unit uncertain)) was “<LLOQ”, the “TNF-α concentration in supernatant” value (human PBMC; Donor 3, 200 (unit uncertain)) was 2528.98 pg/mL and the “IL-1β concentration in supernatant” value (human PBMC; Donor 3, 200 (unit uncertain)) was 2756.81 pg/mL. For the same molecule, the “IFN-g concentration in supernatant” value (human PBMC; Donor 3, 200 (unit uncertain)) was “<LLOQ”, the “IL-6 concentration in supernatant” value (human PBMC; Donor 3, 200 (unit uncertain)) was 649.98 pg/mL and the “Effect on LPS stimulated cytokine secretion” value (human PBMC) was “did not appear to have any effect”. The “Effect on LPS stimulated cytokine secretion” value (human PBMC; listed as myricetin) was “no effect”.
